From patent US20110319416A1, “Subunit Selective NMDA Receptor Antagonists For The Treatment Of Neurological Conditions” (EMORY UNIVERSITY, priority 2009, published 2011)

Assays:
NR2B [1] = target: T1, NR2B (Homo sapiens, UniProt Q05586+Q13224); conditions: cited from earlier work
NR1/NR2A [2] = target: NR1/NR2A (Rattus norvegicus, UniProt Q00959); experiment: Two electrode voltage clamp, Xenopus oocytes expressing recombinant NR1/NR2A; assay type: cell-based
Method: (§1) Quality of synthesized cRNA was assessed by gel electrophoresis, and quantity was estimated by spectroscopy and gel electrophoresis. Stage V and VI oocytes were surgically removed from the ovaries of large, well-fed and healthy Xenopus laevis anesthetized with 3-amino-benzoic acid ethyl ester (3 gm/l) as previously described. Clusters of isolated oocytes were incubated with 292 U/ml Worthington (Freehold, N.J.) type IV collagenase or 1.3 mg/ml collagenase (Life Technologies, Gaithersburg, MD; 17018-029) for 2 hr in Ca^2+-free solution comprised of (in mM) 115 NaCl, 2.5 KCl, and 10 HEPES, pH 7.5, with slow agitation to remove the follicular cell layer. Oocytes were then washed extensively in the same solution supplemented with 1.8 mM CaCl2 and maintained in Barth's solution comprised of (in mM): 88 NaCl, 1 KCl, 2.4 NaHCO3, 10 HEPES, 0.82 MgSO4, 0.33 Ca(NO3)2, and 0.91 CaCl2 and supplemented with 100 μg/m1 gentamycin, 10 μg/ml streptomycin, and 10 μg/ml penicillin. Oocytes were manually defolliculated and injected within 24 hrs of isolation with 3-5 ng of NR1 subunit cRNA and 7-10 ng of NR2 cRNA subunit in a 50 nl volume, or 5-10 ng of AMPA or kainate receptor cRNAs in a 50 nl volume, and incubated in Barth's solution at 18° C. for 1-7 d. Glass injection pipettes had tip sizes ranging from 10-20 microns, and were backfilled with mineral oil.
(§2) Two electrode voltage-clamp recordings were made 2-7 days post-injection as previously described. Oocytes were placed in a dual-track plexi-glass recording chamber with a single perfusion line that splits in a Y-configuration to perfuse two oocytes. Dual recordings were made at room temperature (23° C.) using two Warner OC725B two-electrode voltage clamp amplifiers, arranged as recommended by the manufacturer. Glass microelectrodes (1-10 Megaohms) were filled with 300 mM KCl (voltage electrode) or 3 M KCl (current electrode). The bath clamps communicated across silver chloride wires placed into each side of the recording chamber, both of which were assumed to be at a reference potential of 0 mV. Oocytes were perfused with a solution comprised of (in mM) 90 NaCl, 1 KCl, 10 HEPES, and 0.5 BaCl2; pH was adjusted by addition of 1-3 M NaOH of HC1 to 7.4. Oocytes were recorded under voltage clamp at −40 mV. […] In some experiments, 10 μM EDTA was obtained by adding a 1:1000 dilution of 10 mM EDTA, in order to chelate contaminant divalent ions such as Zn^2+. […] Concentration effect curves consisting of 4 to 8 concentrations were obtained in this manner. The baseline leak current at −40 mV was measured before and after recording, and the full recording linearly corrected for any change in leak current. […] Each experiment consisted of recordings from 3 to 10 oocytes obtained from a single frog. Results from multiple experiments were pooled, and the average percent responses at antagonist concentrations were fitted by the equation,
(§3) Percent Response=(100−minimum)/(1+([conc]/IC50)nH)+minimum

NR1/NR2B [3] = target: NR1/NR2B (Rattus norvegicus, UniProt P35439+Q00960); experiment: Two electrode voltage clamp, Xenopus oocytes expressing recombinant NR1/NR2B; assay type: cell-based; conditions: logistic fit, minimum forced to 0; read-out: 2B IC50
Chain of NR1/NR2B (Rattus norvegicus, UniProt P35439+Q00960) (Q00960 27-1482, other chains not shown): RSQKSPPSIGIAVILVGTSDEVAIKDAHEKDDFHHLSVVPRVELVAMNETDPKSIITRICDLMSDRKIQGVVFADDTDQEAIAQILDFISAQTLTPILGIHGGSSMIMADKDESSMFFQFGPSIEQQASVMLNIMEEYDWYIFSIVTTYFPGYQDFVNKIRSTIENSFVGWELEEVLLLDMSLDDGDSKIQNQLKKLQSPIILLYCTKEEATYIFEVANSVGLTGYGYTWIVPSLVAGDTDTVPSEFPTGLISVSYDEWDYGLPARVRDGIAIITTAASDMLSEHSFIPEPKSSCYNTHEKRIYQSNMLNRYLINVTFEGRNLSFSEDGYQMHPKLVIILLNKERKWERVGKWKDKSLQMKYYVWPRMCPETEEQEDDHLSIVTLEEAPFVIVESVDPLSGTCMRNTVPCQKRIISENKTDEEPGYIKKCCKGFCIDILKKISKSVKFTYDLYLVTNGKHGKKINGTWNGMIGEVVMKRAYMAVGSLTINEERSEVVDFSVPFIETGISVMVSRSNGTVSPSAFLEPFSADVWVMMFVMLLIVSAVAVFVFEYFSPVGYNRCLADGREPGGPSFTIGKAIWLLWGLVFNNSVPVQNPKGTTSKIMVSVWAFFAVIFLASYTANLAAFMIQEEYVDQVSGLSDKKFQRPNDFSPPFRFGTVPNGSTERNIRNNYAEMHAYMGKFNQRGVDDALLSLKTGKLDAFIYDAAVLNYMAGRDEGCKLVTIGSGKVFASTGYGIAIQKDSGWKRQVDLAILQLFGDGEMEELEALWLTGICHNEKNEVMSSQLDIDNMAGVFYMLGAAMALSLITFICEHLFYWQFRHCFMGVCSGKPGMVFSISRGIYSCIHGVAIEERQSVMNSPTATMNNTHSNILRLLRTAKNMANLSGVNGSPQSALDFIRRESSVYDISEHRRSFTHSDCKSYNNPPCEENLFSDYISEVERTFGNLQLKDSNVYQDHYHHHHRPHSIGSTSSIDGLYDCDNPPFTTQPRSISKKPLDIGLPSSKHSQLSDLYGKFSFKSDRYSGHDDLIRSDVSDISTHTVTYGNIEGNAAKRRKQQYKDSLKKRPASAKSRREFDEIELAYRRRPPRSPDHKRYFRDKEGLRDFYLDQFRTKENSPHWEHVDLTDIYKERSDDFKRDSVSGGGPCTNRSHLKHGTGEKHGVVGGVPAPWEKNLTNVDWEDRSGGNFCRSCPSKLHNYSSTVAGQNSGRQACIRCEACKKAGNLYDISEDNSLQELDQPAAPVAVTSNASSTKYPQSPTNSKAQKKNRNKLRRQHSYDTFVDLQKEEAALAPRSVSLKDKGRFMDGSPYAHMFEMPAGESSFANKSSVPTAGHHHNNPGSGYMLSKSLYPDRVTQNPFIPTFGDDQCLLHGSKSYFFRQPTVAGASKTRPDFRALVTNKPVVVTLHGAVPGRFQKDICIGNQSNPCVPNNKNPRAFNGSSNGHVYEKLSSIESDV
Method: as §1, §2, §3

NR1/NR2C [4] = target: NR1/NR2C (Rattus norvegicus, UniProt P35439+Q00961); experiment: Two electrode voltage clamp, Xenopus oocytes expressing recombinant NR1/NR2C; assay type: cell-based; conditions: logistic fit, minimum forced to 0; read-out: 2C IC50
Method: as §1, §2, §3

NR1/NR2D [5] = target: NR1/NR2D (Rattus norvegicus, UniProt P35439+Q62645); experiment: Two electrode voltage clamp, Xenopus oocytes expressing recombinant NR1/NR2D; assay type: cell-based; conditions: logistic fit, minimum forced to 0; read-out: 2D IC50
Method: as §1, §2, §3

NR2D [6] = target: T2, NR2D (Homo sapiens, UniProt O15399+Q05586); experiment: Literature functional antagonist potency at NR2D (Table 1); assay type: cell-based; conditions: Kb ratio
T2 sequence (O15399 28-1336, other chains not shown): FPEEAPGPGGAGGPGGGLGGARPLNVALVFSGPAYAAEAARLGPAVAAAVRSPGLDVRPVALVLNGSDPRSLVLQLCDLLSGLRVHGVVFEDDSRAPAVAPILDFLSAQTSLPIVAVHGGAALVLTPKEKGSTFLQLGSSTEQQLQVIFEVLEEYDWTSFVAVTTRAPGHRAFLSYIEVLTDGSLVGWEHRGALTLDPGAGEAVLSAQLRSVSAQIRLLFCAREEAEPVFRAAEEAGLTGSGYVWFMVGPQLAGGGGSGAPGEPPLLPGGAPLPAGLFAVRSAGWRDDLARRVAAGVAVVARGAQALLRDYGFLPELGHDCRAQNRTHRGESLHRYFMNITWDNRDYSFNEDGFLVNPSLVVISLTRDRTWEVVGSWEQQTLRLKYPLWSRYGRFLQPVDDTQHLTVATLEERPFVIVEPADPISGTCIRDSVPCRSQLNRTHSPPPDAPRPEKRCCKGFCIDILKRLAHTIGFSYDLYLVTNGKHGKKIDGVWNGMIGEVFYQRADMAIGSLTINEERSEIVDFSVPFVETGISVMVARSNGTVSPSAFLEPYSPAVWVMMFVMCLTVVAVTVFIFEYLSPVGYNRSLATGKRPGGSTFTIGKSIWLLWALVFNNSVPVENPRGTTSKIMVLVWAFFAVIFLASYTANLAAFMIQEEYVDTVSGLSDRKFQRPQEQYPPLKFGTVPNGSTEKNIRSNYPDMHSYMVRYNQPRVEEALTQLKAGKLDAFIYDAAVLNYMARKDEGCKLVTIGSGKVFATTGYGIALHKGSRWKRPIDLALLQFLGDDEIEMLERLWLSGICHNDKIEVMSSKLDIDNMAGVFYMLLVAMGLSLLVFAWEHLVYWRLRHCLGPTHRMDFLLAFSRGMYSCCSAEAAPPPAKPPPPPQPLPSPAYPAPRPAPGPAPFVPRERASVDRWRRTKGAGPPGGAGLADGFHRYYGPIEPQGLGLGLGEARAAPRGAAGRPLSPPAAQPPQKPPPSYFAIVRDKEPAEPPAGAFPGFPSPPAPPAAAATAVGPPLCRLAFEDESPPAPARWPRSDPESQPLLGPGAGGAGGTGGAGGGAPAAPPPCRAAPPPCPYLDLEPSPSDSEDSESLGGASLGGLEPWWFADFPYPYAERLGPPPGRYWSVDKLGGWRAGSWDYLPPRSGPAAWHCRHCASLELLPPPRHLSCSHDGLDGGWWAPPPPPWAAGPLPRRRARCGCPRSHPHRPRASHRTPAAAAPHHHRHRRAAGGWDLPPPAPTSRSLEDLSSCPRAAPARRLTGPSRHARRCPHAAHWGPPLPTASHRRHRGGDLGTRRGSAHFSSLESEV

NR2A = NR2A (Homo sapiens, UniProt Q05586+Q12879); conditions: cited from earlier work
NR2C = NR2C (Homo sapiens, UniProt Q05586+Q14957); conditions: cited from earlier work
NR2D [7] = target: T2, NR2D; conditions: cited from earlier work
NR2B [8] = target: T1, NR2B; experiment: Literature functional antagonist potency at NR2B (Table 1); conditions: Kb ratio
NR1/NR2D [9] = target: T3, NR1/NR2D (Rattus norvegicus, UniProt Q62645); experiment: Ca2+ fluorescence screening assay in NR1/NR2D expressing BHK cells (96 well); assay type: cell-based; parameters: expressed in transfected cells; host or cells: BHK-21 cells; NR1 induced by doxycyclin (Tet-On), NR2D constitutive; conditions: 10 μM test compound, 100 μM glutamate/1 mM glycine
NR1/NR2A [10] = target: NR1/NR2A (Rattus norvegicus, UniProt P35439+Q00959); experiment: Two electrode voltage clamp, Xenopus oocytes expressing recombinant NR1/NR2A; assay type: cell-based; conditions: logistic fit, minimum forced to 0; read-out: 2A IC50
Method: as §1, §2, §3

NR1/NR2C [11] = target: NR1/NR2C (Rattus norvegicus, UniProt Q00961); experiment: Two electrode voltage clamp, Xenopus oocytes expressing recombinant NR1/NR2C; assay type: cell-based
Method: as §1, §2, §3

NR1/NR2D [12] = target: T3, NR1/NR2D; experiment: Two electrode voltage clamp, Xenopus oocytes expressing recombinant NR1/NR2D; assay type: cell-based
Method: as §1, §2, §3

GluR1 = GluR1 (Rattus norvegicus, UniProt P19490); experiment: Two electrode voltage clamp, Xenopus oocytes expressing GluR1; assay type: cell-based
Chain of GluR1 (P19490 19-907): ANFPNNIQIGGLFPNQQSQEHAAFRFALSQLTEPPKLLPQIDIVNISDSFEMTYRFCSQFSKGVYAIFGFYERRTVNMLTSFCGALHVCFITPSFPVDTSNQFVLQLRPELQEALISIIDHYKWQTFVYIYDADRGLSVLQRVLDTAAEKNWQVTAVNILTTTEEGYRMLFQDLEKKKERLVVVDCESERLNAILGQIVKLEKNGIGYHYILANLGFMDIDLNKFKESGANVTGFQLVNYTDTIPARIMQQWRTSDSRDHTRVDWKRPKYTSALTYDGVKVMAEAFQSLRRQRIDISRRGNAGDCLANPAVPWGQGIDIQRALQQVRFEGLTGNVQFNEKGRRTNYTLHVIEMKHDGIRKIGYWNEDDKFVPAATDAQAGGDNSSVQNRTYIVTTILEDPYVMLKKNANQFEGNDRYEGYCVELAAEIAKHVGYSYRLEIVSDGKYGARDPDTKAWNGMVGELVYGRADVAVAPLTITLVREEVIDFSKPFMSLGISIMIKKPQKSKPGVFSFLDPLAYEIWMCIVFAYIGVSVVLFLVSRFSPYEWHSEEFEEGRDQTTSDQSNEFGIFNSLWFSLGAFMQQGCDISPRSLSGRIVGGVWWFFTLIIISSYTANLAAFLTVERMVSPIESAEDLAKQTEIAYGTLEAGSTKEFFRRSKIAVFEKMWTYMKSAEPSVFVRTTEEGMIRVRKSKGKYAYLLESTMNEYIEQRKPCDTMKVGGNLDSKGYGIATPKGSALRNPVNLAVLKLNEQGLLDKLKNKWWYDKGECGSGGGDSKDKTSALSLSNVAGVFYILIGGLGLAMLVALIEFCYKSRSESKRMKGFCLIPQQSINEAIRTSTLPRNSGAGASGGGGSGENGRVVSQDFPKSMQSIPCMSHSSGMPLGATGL
Method: as §1, §2, §3

NR1/NR2B [13] = target: NR1/NR2B (Rattus norvegicus, UniProt Q00960); experiment: Two electrode voltage clamp, Xenopus oocytes expressing recombinant NR1/NR2B; assay type: cell-based; conditions: in words
Method: as §1, §2, §3

[14] = target: homomeric GluR6 kainate receptor (Rattus norvegicus, UniProt P42260); experiment: Two electrode voltage clamp, Xenopus oocytes expressing homomeric GluR6; assay type: cell-based; conditions: in words
Method: Real time Ca^2+ signals were recorded in 96 well plates using FlexStation II multi-mode plate readers. […] Test compounds were added to each well together with agonist to yield a final well concentration of 10 μM test compound in 0.9% DMSO. Compounds that altered the response of any well compared to on-plate control wells beyond 2.5-fold of the standard deviation (calculated from all wells on the plate) or by more than 40% of the control response on a given plate were selected for secondary screening using two-electrode voltage-clamp recordings from Xenopus oocytes expressing recombinant NR1/NR2D receptors. To complete the secondary screen, we obtained selected compounds in powder form. […] We subsequently initiated novel synthesis on this class of compound.
Quality of synthesized cRNA was assessed by gel electrophoresis, and quantity was estimated by spectroscopy and gel electrophoresis. Stage V and VI oocytes were surgically removed from the ovaries of large, well-fed and healthy Xenopus laevis anesthetized with 3-amino-benzoic acid ethyl ester (3 gm/l) as previously described. […]
Two electrode voltage-clamp recordings were made 2-7 days post-injection as previously described. […] Oocytes were recorded under voltage clamp at −40 mV. […] The baseline leak current at −40 mV was measured before and after recording, and the full recording linearly corrected for any change in leak current. […]

[15] = not surmounted by agonists at 500-fold of EC50

T1 sequence (Q13224 27-1484, other chains not shown): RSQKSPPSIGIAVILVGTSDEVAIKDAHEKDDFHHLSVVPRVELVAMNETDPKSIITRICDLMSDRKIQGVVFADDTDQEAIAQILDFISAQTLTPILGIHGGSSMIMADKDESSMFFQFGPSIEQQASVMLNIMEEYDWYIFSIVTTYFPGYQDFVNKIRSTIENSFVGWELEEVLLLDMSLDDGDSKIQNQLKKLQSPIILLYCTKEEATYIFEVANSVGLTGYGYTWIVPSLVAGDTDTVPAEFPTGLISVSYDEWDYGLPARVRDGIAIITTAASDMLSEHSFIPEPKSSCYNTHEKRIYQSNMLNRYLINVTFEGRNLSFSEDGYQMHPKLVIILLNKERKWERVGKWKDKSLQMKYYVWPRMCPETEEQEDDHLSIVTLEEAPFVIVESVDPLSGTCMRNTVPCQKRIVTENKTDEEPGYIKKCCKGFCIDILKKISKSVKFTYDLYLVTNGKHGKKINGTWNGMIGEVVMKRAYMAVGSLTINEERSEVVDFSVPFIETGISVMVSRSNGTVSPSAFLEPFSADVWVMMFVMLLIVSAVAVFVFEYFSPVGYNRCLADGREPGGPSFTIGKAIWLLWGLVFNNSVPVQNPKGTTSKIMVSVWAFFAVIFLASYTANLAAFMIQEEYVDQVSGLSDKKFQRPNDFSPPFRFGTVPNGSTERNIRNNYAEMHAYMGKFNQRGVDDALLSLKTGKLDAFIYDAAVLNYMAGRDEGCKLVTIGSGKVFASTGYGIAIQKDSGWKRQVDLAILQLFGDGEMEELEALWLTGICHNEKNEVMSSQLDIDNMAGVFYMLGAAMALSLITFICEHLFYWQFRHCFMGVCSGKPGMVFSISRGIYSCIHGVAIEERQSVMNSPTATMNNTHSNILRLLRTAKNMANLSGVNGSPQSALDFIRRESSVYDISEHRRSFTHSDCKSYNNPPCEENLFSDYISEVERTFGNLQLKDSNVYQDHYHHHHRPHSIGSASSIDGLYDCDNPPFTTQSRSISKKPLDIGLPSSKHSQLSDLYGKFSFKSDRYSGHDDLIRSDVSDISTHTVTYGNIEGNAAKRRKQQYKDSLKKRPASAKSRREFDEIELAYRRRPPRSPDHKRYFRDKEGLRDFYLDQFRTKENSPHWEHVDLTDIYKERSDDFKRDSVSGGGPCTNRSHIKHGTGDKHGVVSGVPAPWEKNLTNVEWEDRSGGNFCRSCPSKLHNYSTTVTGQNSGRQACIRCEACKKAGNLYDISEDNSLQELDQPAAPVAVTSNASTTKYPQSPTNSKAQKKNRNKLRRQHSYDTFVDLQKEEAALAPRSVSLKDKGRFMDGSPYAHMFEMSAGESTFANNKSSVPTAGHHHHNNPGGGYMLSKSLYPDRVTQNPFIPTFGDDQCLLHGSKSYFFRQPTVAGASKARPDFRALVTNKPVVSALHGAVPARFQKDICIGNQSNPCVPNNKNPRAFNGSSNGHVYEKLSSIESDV

For N=C(N)c1ccc(OCCCCCOc2ccc(C(=N)N)cc2)cc1 [Pentamidine], the IC50 (NR2B [1]; non-competitive and uncompetitive antagonists, read-out: 2B (μM) IC50) is listed as 1.5 µM.

In the case of O=C(O)CCC(=O)N1N=C(c2c(-c3ccccc3)c3cc(Br)ccc3[nH]c2=O)CC1c1ccc(F)cc1 (centres unmarked) [compound 1184], the “2A percent response at the maximum tested concentration” value (NR1/NR2A [2]; at 100 μM) is reported as 87% at 100 μM, the IC50 (NR1/NR2B [3]) is reported as 90 µM and the IC50 (NR1/NR2C [4]) is reported as 33 µM. It also gave an IC50 (NR1/NR2D [5]) of 22 µM.

For O=c1[nH]c2cc(Cl)c(Cl)c([N+](=O)[O-])c2[nH]c1=O [ACEA-1021], the “2A/2D (ratio of Kb)” value (NR2D [6]) is given as 0.4, the Kb (NR2A; Kb determined by Schild analysis, read-out: 2A (μM) Kb) is given as 0.004 µM and the Kb (NR2B [1]; Kb determined by Schild analysis, read-out: 2B (μM) Kb) is given as 0.004 µM. For the same molecule, the Kb (NR2C; Kb determined by Schild analysis, read-out: 2C (μM) Kb) was 0.003 µM, the Kb (NR2D [7]; Kb determined by Schild analysis, read-out: 2D (μM) Kb) was 0.011 µM and the “2A/2B (ratio of Kb)” value (NR2B [8]) was 1.0.

For CC(C(O)c1ccc(O)cc1)N1CCC(Cc2ccccc2)CC1 (centres unmarked) [Ifenprodil], the IC50 (NR2A; read-out: 2A (μM) IC50, non-competitive and uncompetitive antagonists) is given as 40 µM, the IC50 (NR2C; read-out: 2C (μM) IC50, non-competitive and uncompetitive antagonists) is given as 29 µM and the IC50 (NR2D [7]; read-out: 2D (μM) IC50, non-competitive and uncompetitive antagonists) is given as 76 µM. For the same molecule, the “identification in test screen of NR1/NR2D expressing BHK cells” value (NR1/NR2D [9]) was “successfully identified”.

Cc1ccc2[nH]c(=O)c(C3=NN(C(=O)CCC(=O)O)C(c4ccc(Br)cc4)C3)c(-c3ccccc3)c2c1 (centres unmarked) [compound 1105] gave an IC50 (NR1/NR2A [10]) of 218 µM, an IC50 (NR1/NR2B [3]) of 74 µM and an IC50 (NR1/NR2C [4]) of 7 µM. For the same molecule, the IC50 (NR1/NR2C [11]; logistic fit, minimum forced to 0, read-out: 2C IC50) was 7 µM, the IC50 (NR1/NR2D [5]) was 3 µM and the IC50 (NR1/NR2D [12]; logistic fit, minimum forced to 0, read-out: 2D IC50) was 3 µM. It also gave an IC50 (GluR1; logistic fit, minimum forced to 0) of 109 µM.

In the case of CCN(CC)C(=S)Oc1ccc(C(=O)Nc2cccc3ccccc23)cc1 [compound 1063], the IC50 (NR1/NR2A [10]) is reported as 1370 µM, the “effect on NR2A-containing receptors” value (NR1/NR2A [2]; in words) is reported as “little effect” and the IC50 (NR1/NR2B [3]) is reported as 1230 µM. For the same molecule, the “effect on NR2B-containing receptors” value (NR1/NR2B [13]) was “little effect”, the IC50 (NR1/NR2C [4]) was 2 µM and the “IC50 (half maximally inhibiting concentration), NR1/NR2C” value (NR1/NR2C [11]; in words) was “low micromolar”. The “mode of block of NR1/NR2C receptors” value (NR1/NR2C [11]; [15]) was “non-competitive and voltage-independent blocker”, the “maximum inhibition of NR1/NR2C receptor function” value (NR1/NR2C [11]; voltage clamp) was 85% and the IC50 (NR1/NR2D [5]) was 1 µM. The “selectivity for NR1/NR2D compared to NR1/NR2A” value (NR1/NR2D [12]; fitted IC50 values) was > 500 fold, the “IC50 (half maximally inhibiting concentration), NR1/NR2D” value (NR1/NR2D [12]; in words) was “low micromolar” and the “mode of block of NR1/NR2D receptors” value (NR1/NR2D [12]; [15]) was “non-competitive and voltage-independent blocker”. The “maximum inhibition of NR1/NR2D receptor function” value (NR1/NR2D [12]; voltage clamp) was 85%, the remaining activity at 100 µM (GluR1; at 100 μM, read-out: GluR1 percent effect at the maximum tested concentration) was 105% and the “effect on recombinant AMPA receptors” value (GluR1; in words) was “little effect”. For the same molecule, the “effect on recombinant kainate receptors” value [14] was “little effect”.
